This is an account of results in ChEMBL document CHEMBL1201862, “PubChem BioAssay data set” (2004).

By GI50 is commonly meant the concentration at which growth is held to half of that of the control.

Common to all, as to assay: DTP human tumour cell line panel, 48 h
The test system of assay [1] is SN12C.
Assay [2] deals with U-251.
Assay [3] relates to MCF7.
For assay [4], the system named is SF-295.
Assay [5] has as its system HCC 2998.
Assay [6] concerns Malme-3M.
In assay [7] the test system is MDA-MB-435.
In assay [8] the test system is KM12.
The subject of assay [9] is Hs-578T.
Assay [10] deals with OVCAR-5.
Assay [11] has as its system SW-620.
The test system of assay [12] is SK-MEL-28.
For assay [13], the system named is IGROV-1.
Assay [14] deals with A549.
For assay [15], the system named is BT-549.
Assay [16] has as its system PC-3.
The test system of assay [17] is LOX IMVI.
Assay [18] relates to MOLT-4.
Assay [19] relates to SK-OV-3.
Assay [20] concerns HL-60.

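Growth conditions: 96-well plates. Treatment: test compound, 48 hours, 5 concentrations. Analysis: linear interpolation between bracketing concentrations; unreached endpoints set to highest concentration. GI50 marks 50% less growth.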 The source made the active and inactive calls. No stated cut-off is given here; in the data, active = GI50 up to about 1.1 µM and inactive = higher.

Consider `O=C(NCCN1CCCCC1)c1ccc(I)cc1`, for which the GI50 in assay [1], in assay [2], in assay [3], in assay [4], in assay [5] and in [6] was > 100 µM (inactive) throughout. For the same compound, the GI50 is > 100 µM (inactive) in [7]; > 100 µM (inactive) in [8]; 61 µM (inactive) in assay [9]; > 100 µM (inactive) in assay [10]; > 100 µM (inactive) in assay [11]; > 100 µM (inactive) in [12]. Moreover, the GI50 in assay [13], in assay [14], in [15], in [16], in [17] and in assay [18] was > 100 µM (inactive) in each case. Further, the GI50 in assay [19] was > 100 µM (inactive).

`COc1cc2c(cc1OCCN1C(=O)c3cccc4cccc(c34)C1=O)N=C[C@@H]1CCCN1C2=O`: the GI50 was 7.93 µM (inactive) in [1]; 6.15 µM (inactive) in assay [2]; 6.59 µM (inactive) in [3]; 13.7 µM (inactive) in [4]; 7.74 µM (inactive) in [5]; 8.02 µM (inactive) in [6]. The GI50 was 10.7 µM (inactive) in assay [7]; 14.3 µM (inactive) in assay [8]; 7.8 µM (inactive) in [9]; 10.9 µM (inactive) in [10]; 7.66 µM (inactive) in assay [11]; 8.95 µM (inactive) in assay [12]. Besides, the GI50 in assay [13] was 3.11 µM (inactive); in assay [14], 8.65 µM (inactive); in assay [15] it was 9.82 µM (inactive); in [16] it was 7.08 µM (inactive); in assay [17], 6.04 µM (inactive); in assay [18] it was 1.01 µM (active). In assay [19], the GI50 was 24.3 µM (inactive).

Turning to `O=c1[nH]nc(-c2ccccc2)n1-n1cccc1`, the GI50 in [1], in [2], in assay [3], in assay [4], in assay [5] and in assay [6] was > 100 µM (inactive) throughout. For the same compound, the GI50 in assay [7], in [8], in assay [9], in [10], in assay [11] and in assay [12] was > 100 µM (inactive) throughout. Moreover, the GI50 is > 100 µM (inactive) in assay [13]; > 100 µM (inactive) in [14]; > 100 µM (inactive) in [15]; > 100 µM (inactive) in [16]; > 100 µM (inactive) in [17]; 35.6 µM (inactive) in assay [18]. Also, the GI50 in assay [19] was > 100 µM (inactive).

Turning to `CCNC1=C(NC(=O)CCl)C(=O)c2ccccc2C1=O`, the GI50 was 17.9 µM (inactive) in assay [1]; 20.3 µM (inactive) in [2]; 22.4 µM (inactive) in assay [3]; 19.4 µM (inactive) in [4]; > 10 µM (inactive) in assay [5]; 19.9 µM (inactive) in assay [6]. Besides, the GI50 was 19.1 µM (inactive) in assay [7]; 17.1 µM (inactive) in assay [8]; 34.1 µM (inactive) in [20]; 24.2 µM (inactive) in [9]; 19.6 µM (inactive) in [10]; 25.8 µM (inactive) in assay [11]. Besides, the GI50 is 17.6 µM (inactive) in [12]; > 10 µM (inactive) in assay [13]; 33.7 µM (inactive) in assay [14]; > 10 µM (inactive) in assay [15]; 16 µM (inactive) in assay [16]; 18.2 µM (inactive) in assay [18]. For the same compound, the GI50 in [19] is > 10 µM (inactive).

For `COc1ccc2cc(C(=O)O)ccc2c1OC`, the GI50 in [1], in [2], in [3], in [4], in assay [5] and in assay [6] was > 100 µM (inactive) each time. The GI50 in assay [7], in assay [8], in [20], in assay [9], in assay [10] and in assay [11] was > 100 µM (inactive) in each case. Also, the GI50 in assay [13], in assay [14], in assay [15], in assay [16], in [18] and in [19] was > 100 µM (inactive) in each case.

Take `Nc1c(C(=O)O)c2ccc([N+](=O)[O-])cc2c(=O)n1-c1nc2ccccc2s1`: the GI50 in [1], in assay [2], in assay [3], in assay [4], in assay [5] and in assay [6] was > 100 µM (inactive) each time. For the same compound, the GI50 in [7], in [8], in assay [9], in assay [10], in [11] and in assay [12] was > 100 µM (inactive) in each case. Moreover, the GI50 in assay [13], in [14], in [15], in [16], in [17] and in assay [18] was > 100 µM (inactive) in each case. Moreover, the GI50 in assay [19] is > 100 µM (inactive).

In the case of `CCOC(=O)C1=CC(C)(C(=O)OCC)Nc2c(nc(SC)[nH]c2=O)N1` (stereo unspecified), the GI50 in [1], in assay [2], in assay [3], in assay [4], in assay [5] and in assay [6] was > 10 µM (inactive) in each case. Moreover, the GI50 in [7], in [8], in [9], in assay [10], in assay [11] and in assay [12] was > 10 µM (inactive) each time. In addition, the GI50 in assay [13], in assay [14], in [15], in assay [16], in assay [17] and in assay [18] was > 10 µM (inactive) in each case. Also, in assay [19], the GI50 was > 10 µM (inactive).

Turning to `CCOC(=O)/C(C#N)=C/N(CC)/N=C/c1ccccc1`, the GI50 was > 100 µM (inactive) in assay [1]; > 100 µM (inactive) in [2]; > 100 µM (inactive) in assay [3]; 69.8 µM (inactive) in [4]; > 100 µM (inactive) in assay [5]; > 100 µM (inactive) in assay [6]. Also, the GI50 in assay [7] was > 100 µM (inactive); in [8], > 100 µM (inactive); in assay [20], > 100 µM (inactive); in [9] it was 54.7 µM (inactive); in [10] it was > 100 µM (inactive); in assay [11], > 100 µM (inactive). The GI50 in assay [12], in assay [13], in assay [14], in [15], in [16] and in [18] was > 100 µM (inactive) each time. In [19], the GI50 is > 100 µM (inactive).

Consider `Nc1nonc1-c1noc(-c2nonc2N)[n+]1[O-]`, for which the GI50 in assay [1] is > 100 µM (inactive); in [2], > 100 µM (inactive); in [3], 33.3 µM (inactive); in assay [4] it was > 100 µM (inactive); in [5], > 100 µM (inactive); in assay [6], 20.4 µM (inactive). Further, the GI50 was 57 µM (inactive) in assay [7]; 58.9 µM (inactive) in assay [8]; > 100 µM (inactive) in [9]; 33.7 µM (inactive) in [10]; 27 µM (inactive) in assay [11]; > 100 µM (inactive) in [12]. Also, the GI50 in assay [13] was > 100 µM (inactive); in assay [14], 30.3 µM (inactive); in assay [15], 64.1 µM (inactive); in [16], 69.7 µM (inactive); in assay [17], 63.2 µM (inactive); in assay [18], 54.6 µM (inactive). Besides, in assay [19], the GI50 is > 100 µM (inactive).

Consider `CCOC1CC(C)N(C(=O)c2ccccc2)O1` (stereo unspecified), for which the GI50 in [1] is > 100 µM (inactive); in assay [2] it was > 100 µM (inactive); in assay [3] it was > 100 µM (inactive); in assay [4], > 100 µM (inactive); in assay [5] it was > 100 µM (inactive); in assay [6], > 10 µM (inactive). Further, the GI50 in assay [7], in assay [8], in assay [20], in [9], in [10] and in assay [11] was > 100 µM (inactive) in each case. In addition, the GI50 in [12] was > 100 µM (inactive); in assay [13], > 100 µM (inactive); in assay [14] it was > 100 µM (inactive); in [15], > 100 µM (inactive); in [16], 80.2 µM (inactive); in assay [18] it was > 100 µM (inactive). The GI50 in [19] is > 100 µM (inactive).

`O=C1Cc2c([nH]c3ccc(Br)cc23)-c2cc(O)c(O)cc2N1`: the GI50 in assay [1], in assay [2], in [3], in assay [4], in assay [5] and in assay [7] was > 100 µM (inactive) in each case. Moreover, the GI50 in [8], in assay [9], in assay [10], in assay [11], in assay [12] and in assay [14] was > 100 µM (inactive) in each case. For the same compound, the GI50 in [15] is > 100 µM (inactive); in assay [16] it was > 100 µM (inactive); in [17] it was > 100 µM (inactive); in [18], 71.8 µM (inactive); in assay [19] it was > 100 µM (inactive).
